Experiment [1] deals with human GLP-1R (Homo sapiens, UniProt P43220, G168S). Put plainly: CHO GLP-1R Clone H6 - Assay 1 (HTRF cAMP agonist assay). The format is cell-based. To be noted: for EC50: CHO GLP-1R Clone H6, cAMP HTRF, geometric mean; for Emax: CHO GLP-1R Clone H6, arithmetic mean, relative to saturating GLP-1 (1 μM). On the technique in general: Time-resolved FRET reads energy transfer from a long-lived donor to a nearby acceptor.
Procedure: GLP-1R-mediated agonist activity was determined with a cell-based functional assay utilizing an HTRF (Homogeneous Time-Resolved Fluorescence) cAMP detection kit (cAMP HI Range Assay Kit; CisBio cat #62AM6PEJ) that measures cAMP levels in the cell. The method is a competitive immunoassay between native cAMP produced by the cells and exogenous cAMP labeled with the dye d2. The tracer binding is visualized by a mAb anti-cAMP labeled with Cryptate. The specific signal (i.e. energy transfer) is inversely proportional to the concentration of cAMP in either standard or experimental sample.
The human GLP-1R coding sequence (NCBI Reference Sequence NP_002053.3, including naturally-occurring variant Gly168Ser) was subcloned into pcDNA3 (Invitrogen) and a cell line stably expressing the receptor was isolated (designated Clone H6).
Cells were removed from cryopreservation, re-suspended in 40 mL of Dulbecco's Phosphate Buffered Saline (DPBS—Lonza Cat #17-512Q) and centrifuged at 800×g for 5 minutes at 22° C. The cell pellet was then re-suspended in 10 mL of growth medium [DMEM/F12 1:1 Mixture with HEPES, L-Gln, 500 mL (DMEM/F12 Lonza Cat #12-719F), 10% heat inactivated fetal bovine serum (Gibco Cat #16140-071), 5 mL of 100× Pen-Strep (Gibco Cat #15140-122), 5 mL of 100×L-Glutamine (Gibco Cat #25030-081) and 500 μg/mL Geneticin (G418) (Invitrogen #10131035)]. A 1 mL sample of the cell suspension in growth media was counted on a Becton Dickinson ViCell to determine cell viability and cell count per mL. The remaining cell suspension was then adjusted with growth media to deliver 2000 viable cells per well using a Matrix Combi Multidrop reagent dispenser, and the cells were dispensed into a white 384 well tissue culture treated assay plate (Corning 3570). The assay plate was then incubated for 48 hours at 37° C. in a humidified environment in 5% carbon dioxide.
Varying concentrations of each compound to be tested (in DMSO) were diluted in assay buffer (HBSS with Calcium/Magnesium (Lonza/BioWhittaker cat #10-527F)/0.1% BSA (Sigma Aldrich cat # A7409-1L)/20 mM HEPES (Lonza/BioWhittaker cat #17-737E) containing 100 μM 3-isobutyl-1-methylxanthin (IBMX; Sigma cat #15879). The final DMSO concentration is 1%.
After 48 hours, the growth media was removed from the assay plate wells, and the cells were treated with 20 μL of the serially diluted compound in assay buffer for 30 minutes at 37° C. in a humidified environment in 5% carbon dioxide. Following the 30 minute incubation, 10 μL of labeled d2 cAMP and 10 μL of anti-cAMP antibody (both diluted 1:20 in cell lysis buffer; as described in the manufacturer's assay protocol) were added to each well of the assay plate. The plates were then incubated at room temperature and after 60 minutes, changes in the HTRF signal were read with an Envision 2104 multi-label plate reader using excitation of 330 nm and emissions of 615 and 665 nm. Raw data were converted to nM cAMP by interpolation from a cAMP standard curve (as described in the manufacturer's assay protocol) and the percent effect was determined relative to a saturating concentration of the full agonist GLP-17-36 (1 μM) included on each plate. EC50 determinations were made from agonist dose-response curves analyzed with a curve fitting program using a 4-parameter logistic dose response equation.

Experiment [2] has as its target human GLP-1R (Homo sapiens (Human), UniProt P43220, L260F). Put plainly: CHO GLP-1R Clone C6 - Assay 2 (HTRF cAMP agonist assay, low receptor density). To be noted: for Emax: read-out: Assay 2 Emax (%), CHO GLP-1R Clone C6 (low receptor density), arithmetic mean, relative to saturating GLP-1 (1 μM).
The mark [3] stands for this setting: read-out: Assay 2 EC50, CHO GLP-1R Clone C6 (low receptor density), cAMP HTRF, geometric mean.
The mark [4] stands for this setting: EC50 in Assay 2, CHO GLP-1R Clone C6, cAMP, geometric mean of replicates.

In general, EC50 refers to the midpoint of the concentration-response curve. For orientation: Emax means the maximal effect, on the per cent scale that the assay sets.

Each structure is given as a SMILES string. Where two headings read alike, the source gives them in different places. Bounds are passed on as bounds.

Chain of human GLP-1R (Homo sapiens (Human), UniProt P43220, L260F) (P43220 24-463 L260F): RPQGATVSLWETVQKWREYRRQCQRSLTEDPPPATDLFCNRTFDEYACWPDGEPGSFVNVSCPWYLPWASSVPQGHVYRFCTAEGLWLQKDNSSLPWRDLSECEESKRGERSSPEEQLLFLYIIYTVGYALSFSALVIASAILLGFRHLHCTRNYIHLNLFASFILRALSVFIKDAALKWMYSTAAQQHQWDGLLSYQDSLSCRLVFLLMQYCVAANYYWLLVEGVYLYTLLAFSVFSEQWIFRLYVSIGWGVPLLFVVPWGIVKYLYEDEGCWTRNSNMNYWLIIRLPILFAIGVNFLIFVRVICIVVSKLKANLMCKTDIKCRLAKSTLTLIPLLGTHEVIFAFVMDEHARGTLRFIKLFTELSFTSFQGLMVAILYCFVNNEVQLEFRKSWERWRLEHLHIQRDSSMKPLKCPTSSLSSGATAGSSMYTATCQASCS
Chain of human GLP-1R (Homo sapiens, UniProt P43220, G168S) (P43220 24-463 G168S limits assumed): as the sequence (P43220 24-463 L260F) above, with G145S, F237L counted along it

Regarding `COCCn1c(CN2CCC(c3cccc4c3OC(c3ccc(Cl)cc3F)O4)CC2)nc2ccc(C(=O)O)cc21` (stereo not shown) [Example 20, 2-({4-[2-(4-chloro-2-fluorophenyl)-1,3-benzodioxol-4-yl]piperidin-1-yl}methyl)-1-(2-methoxyethyl)-1H-benzimidazole-6-carboxylic acid], the results for the EC50 on human GLP-1R [1] and on human GLP-1R [2] (setting [3]) were 17 nM and 270 nM, respectively. The Emax on human GLP-1R [1] stood at 85%; on human GLP-1R [2], 100%.
On human GLP-1R [2] (setting [4]), `C[C@]1(c2ccc(Cl)cc2F)Oc2cccc(C3CCN(Cc4nc5ccc(C(=O)O)cc5n4C[C@@H]4CCO4)CC3)c2O1` [7, free acid, 2-({4-[(2S)-2-(4-Chloro-2-fluorophenyl)-2-methyl-1,3-benzodioxol-4-yl]piperidin-1-yl}methyl)-1-[(2S)-oxetan-2-ylmethyl]-1H-benzimidazole-6-carboxylic Acid] yielded an EC50 of 4.3 nM.
For the compound `CC1(c2ccc(Cl)cc2F)Oc2cccc(C3CCN(Cc4nc5ccc(C(=O)O)cc5n4C[C@@H]4CCCO4)CC3)c2O1` (stereo partly drawn) [Example 79, 2-({4-[2-(4-chloro-2-fluorophenyl)-2-methyl-1,3-benzodioxol-4-yl]piperidin-1-yl}methyl)-1-[(2S)-tetrahydrofuran-2-ylmethyl]-1H-benzimidazole-6-carboxylic acid], the EC50 on human GLP-1R [1] is 1.4 nM; at human GLP-1R [2] (setting [3]), 21 nM. Also, the Emax at human GLP-1R [1] and on human GLP-1R [2] was 85% each time.
For `COCCn1c(CN2CCC(c3cccc4c3OC(CO)(c3ccccc3)O4)CC2)nc2ccc(C(=O)O)cc21` (stereo not shown) [Example 102, 2-({4-[2-(hydroxymethyl)-2-phenyl-1,3-benzodioxol-4-yl]piperidin-1-yl}methyl)-1-(2-methoxyethyl)-1H-benzimidazole-6-carboxylic acid], on human GLP-1R [1], the midpoint of the response, the EC50, lay at 600 nM and the Emax came out at 86%.
With `CC1(c2ccc(Cl)cc2F)Oc2cccc(C3CCN(Cc4nc5ccc(C(=O)O)cc5n4Cc4cn[nH]c4)CC3)c2O1` (stereo not shown) [Example 73, 2-({4-[2-(4-chloro-2-fluorophenyl)-2-methyl-1,3-benzodioxol-4-yl]piperidin-1-yl}methyl)-1-(1H-pyrazol-4-ylmethyl)-1H-benzimidazole-6-carboxylic acid], the results for the EC50 at human GLP-1R [1] and on human GLP-1R [2] (setting [3]) were 1.7 nM and 10 nM, respectively. The results for the Emax at human GLP-1R [1] and at human GLP-1R [2] were 98% and 100%, respectively.
In turn, `O=C(O)c1ccc2nc(CN3CCC(c4cccc5c4O[C@@H](c4ccc(Cl)cc4F)O5)CC3)n(C[C@@H]3CCO3)c2c1` [5, free acid, 2-({4-[(2S)-2-(4-Chloro-2-fluorophenyl)-1,3-benzodioxol-4-yl]piperidin-1-yl}methyl)-1-[(2S)-oxetan-2-ylmethyl]-1H-benzimidazole-6-carboxylic Acid] displayed an EC50 at human GLP-1R [2] (setting [4]) of 25 nM.
Take `COCCn1c(CN2CCC(c3cccc4c3OC(C)(c3ccccc3OC)O4)CC2)nc2ccc(C(=O)O)cc21` (stereo not shown) [Example 37, 1-(2-methoxyethyl)-2-({4-[2-(2-methoxyphenyl)-2-methyl-1,3-benzodioxol-4-yl]piperidin-1-yl}methyl)-1H-benzimidazole-6-carboxylic acid]: the values for the EC50 on human GLP-1R [1] and on human GLP-1R [2] (setting [3]) were 81 nM and 1000 nM, respectively. In addition, the figures for the maximal response (Emax) on human GLP-1R [1] and at human GLP-1R [2] were 100% and 83%, respectively.
For `CNC(=O)Cn1c(CN2CCC(c3cccc4c3OC(C)(c3ccc(Cl)cc3F)O4)CC2)nc2ccc(C(=O)O)cc21` (stereo not shown) [Example 52, 2-({4-[2-(4-chloro-2-fluorophenyl)-2-methyl-1,3-benzodioxol-4-yl]piperidin-1-yl}methyl)-1-[2-(methylamino)-2-oxoethyl]-1H-benzimidazole-6-carboxylic acid], in that order: 32 nM, 570 nM, 85% and 80%.
At human GLP-1R [1], `CC1(c2ccc(Cl)cc2F)Oc2cccc(C3CCN(Cc4nc5ccc(C(=O)O)cc5n4CCc4ncc[nH]4)CC3)c2O1` (stereo not shown) [Example 74, 2-({4-[2-(4-chloro-2-fluorophenyl)-2-methyl-1,3-benzodioxol-4-yl]piperidin-1-yl}methyl)-1-[2-(1H-imidazol-2-yl)ethyl]-1H-benzimidazole-6-carboxylic acid] returned an EC50 of 460 nM and an Emax of 90%.
`C[C@]1(c2ccc(Cl)cc2F)Oc2cccc(C3CCN(Cc4nc5ccc(C(=O)O)c(F)c5n4C[C@@H]4CCO4)CC3)c2O1` [Example 100, 2-({4-[(2S)-2-(4-chloro-2-fluorophenyl)-2-methyl-1,3-benzodioxol-4-yl]piperidin-1-yl}methyl)-7-fluoro-1[(2S)-oxetan-2-ylmethyl]-1H-benzimidazole-6-carboxylic acid]: the EC50 at human GLP-1R [2] (setting [3]) was determined as 7.6 nM. Moreover, at human GLP-1R [2], the Emax amounted to 99%.
At human GLP-1R [1], `COCCn1c(CN2CCC(c3cccc4c3OC(C)(c3cccc(C)n3)O4)CC2)nc2ccc(C(=O)O)cc21` (stereo not shown) [Example 36, 1-(2-methoxyethyl)-2-({4-[2-methyl-2-(6-methylpyridin-2-yl)-1,3-benzodioxol-4-yl]piperidin-1-yl}methyl)-1H-benzimidazole-6-carboxylic acid] registered an EC50 of 760 nM and an Emax of 85%.
On to `COCCn1c(CN2CCC(c3cccc4c3OC(C)(c3cccnc3)O4)CC2)nc2ccc(C(=O)O)cc21` (stereo not shown) [Example 11, 1-(2-Methoxyethyl)-2-({4-[2-methyl-2-(pyridin-3-yl)-1,3-benzodioxol-4-yl]piperidin-1-yl}methyl)-1H-benzimidazole-6-carboxylic Acid], for which, at human GLP-1R [1], the midpoint of the response, the EC50, lay at 290 nM and the Emax was determined as 78%.
Turning to `COCCn1c(CN2CCC(c3cccc4c3OC(C)(c3cccc(C#N)c3)O4)CC2)nc2ccc(C(=O)O)cc21` (stereo not shown) [Example 87, 2-({4-[2-(3-cyanophenyl)-2-methyl-1,3-benzodioxol-4-yl]piperidin-1-yl}methyl)-1-(2-methoxyethyl)-1H-benzimidazole-6-carboxylic acid], at human GLP-1R [1], the concentration for a half-maximal effect (EC50) worked out at 570 nM and the Emax worked out at 89%.
Take `CC1(c2ccc(Cl)cn2)Oc2cccc(C3CCN(Cc4nc5ccc(C(=O)O)cc5n4C[C@@H]4CCO4)CC3)c2O1` (stereo partly drawn) [Example 95, 2-({4-[2-(5-chloropyridin-2-yl)-2-methyl-1,3-benzodioxol-4-yl]piperidin-1-yl}methyl)-1-[(2S)-oxetan-2-ylmethyl]-1H-benzimidazole-6-carboxylic acid]: the maximal response (Emax) at human GLP-1R [1] was 77%.
At human GLP-1R [1], `COCCn1c(CN2CCC(c3cccc4c3OC(C)(c3cccc(C(F)(F)F)c3)O4)CC2)nc2ccc(C(=O)O)cc21` (stereo not shown) [Example 28, 1-(2-methoxyethyl)-2-[(4-{2-methyl-2-[3-(trifluoromethyl)phenyl]-1,3-benzodioxol-4-yl}piperidin-1-yl)methyl]-1H-benzimidazole-6-carboxylic acid] gave an EC50 of 480 nM and an Emax of 87%.
As for `O=C(O)c1ccc2nc(CN3CCC(c4cccc5c4O[C@@H](c4ccc(Cl)cc4F)O5)CC3)n(C[C@@H]3CCO3)c2c1F` [Example 101, 2-({4-[(2S)-2-(4-chloro-2-fluorophenyl)-1,3-benzodioxol-4-yl]piperidin-1-yl}methyl)-7-fluoro-1-[(2S)-oxetan-2-ylmethyl]-1H-benzimidazole-6-carboxylic acid], the EC50 at human GLP-1R [2] (setting [3]) was 19 nM. The Emax on human GLP-1R [2] amounted to 74%.
On human GLP-1R [1], `CC1(c2ccc(Cl)cc2F)Oc2cccc(C3CCN(Cc4nc5ccc(C(=O)O)cc5n4CCN4CCOCC4)CC3)c2O1` (stereo not shown) [Example 44, 2-({4-[2-(4-chloro-2-fluorophenyl)-2-methyl-1,3-benzodioxol-4-yl]piperidin-1-yl}methyl)-1-[2-(morpholin-4-yl)ethyl]-1H-benzimidazole-6-carboxylic acid] displayed an EC50 of 160 nM and an Emax of 78%.
On to `COCCn1c(CN2CCC(c3cccc4c3OC(C)(c3cccc(C)c3)O4)CC2)nc2ccc(C(=O)O)cc21` (stereo not shown) [Example 85, 1-(2-methoxyethyl)-2-({4-[2-methyl-2-(3-methylphenyl)-1,3-benzodioxol-4-yl]piperidin-1-yl}methyl)-1H-benzimidazole-6-carboxylic acid], for which, on human GLP-1R [1], a half-maximal effect (EC50) was put at 230 nM and the Emax stood at 80%.
For `COCCn1c(CN2CCC(c3cccc4c3OC(C)(c3cccc(OC)c3)O4)CC2)nc2ccc(C(=O)O)cc21` (stereo not shown) [Example 39, 1-(2-methoxyethyl)-2-({4-[2-(3-methoxyphenyl)-2-methyl-1,3-benzodioxol-4-yl]piperidin-1-yl}methyl)-1H-benzimidazole-6-carboxylic acid], in that order: 200 nM and 83%.
On to `COCCn1c(CN2CCN(c3cccc4c3OC(c3ccccc3)O4)CC2)nc2ccc(C(=O)O)cc21` (stereo not shown) [Example 22, 1-(2-methoxyethyl)-2-{[4-(2-phenyl-1,3-benzodioxol-4-yl)piperazin-1-yl]methyl}-1H-benzimidazole-6-carboxylic acid], for which the EC50 at human GLP-1R [1] is above 20000 nM.
For the compound `COCCn1c(CN2CCN(c3cccc4c3OC(c3ccccc3)O4)CC2)nc2ccc(C(=O)O)cc21` (stereo not shown) [Example 23, 1-(2-methoxyethyl)-2-{[4-(2-phenyl-1,3-benzodioxol-4-yl)piperazin-1-yl]methyl}-1H-benzimidazole-6-carboxylic acid], at human GLP-1R [1], a half-maximal response (EC50) required 680 nM and the Emax amounted to 76%.
`COCCn1c(CN2CCC(c3cccc4c3OC(C)(c3ccccn3)O4)CC2)nc2ccc(C(=O)O)cc21` (stereo not shown) [Example 90, 1-(2-methoxyethyl)-2-({4-[2-methyl-2-(pyridin-2-yl)-1,3-benzodioxol-4-yl]piperidin-1-yl}methyl)-1H-benzimidazole-6-carboxylic acid] showed an EC50 on human GLP-1R [1] above 20000 nM.
